Measurements as given in patent EP4653435A1, “PRMT5-MTA INHIBITOR” (Suzhou Puhe Biopharma Co., Ltd., priority 2023, dated 2024).
Read-outs that look alike come from different tables or passages of the source.

Tests used:
HCT116-MTAPdel = assay: 2D antiproliferative assay (CTG cell viability), MTAP-deficient cells; type: cell-based; details: for IC50: Homo sapiens; for HCT116WT IMTAPdel selectivity: ratio IC50 wild type / MTAPdel, antiproliferation
Method: (§1) HCT116 wild-type and MTAP-deficient cells were cultured in McCoy's 5A medium containing 10% FBS and 1% penicillin-streptomycin, and cultured in a 37°C, 5% CO2 constant temperature incubator. 40 µL of cell suspension was introduced into each well of a 384-well microplate. 40 nL of different concentrations of test compounds were added to each well using an Echo, before culturing in a 37°C, 5% CO2 constant temperature incubator for 7-10 days. 40 µL of CTG solution (Promega, Cat No. G7573) was added to each well and incubated in a 37°C, 5% CO2 constant temperature incubator for 30 minutes in the dark.

HCT116-MTAPwt = assay: 2D antiproliferative assay (CTG cell viability), wild-type cells; type: cell-based; details: Homo sapiens, HCT-116, 7-10 days
Method: as §1

[1] = HCT-116, HCT116 MTAP-deficient cells, 7-10 days, CTG, read-out: HCT116-MTAPdel/IC50/nM

Row | Structure (SMILES) | IC50 (HCT116-MTAPdel; [1]) [nM] | HCT116WT IMTAPdel selectivity (HCT116-MTAPdel) | IC50 (HCT116-MTAPwt) [nM] | IC50 (HCT116-MTAPdel; HCT-116, read-out: HCT116-MTAPdel/IC50/nM) [nM]
1 | Cc1nc2cc(C3CCC(C)CN3C(=O)C(=O)Nc3cnc(N)c4c3cnn4C)ccc2s1 (racemic) [Compound P10] | 10 | 80 | 800 | 
2 | C[C@H]1COC[C@@H](c2ccc(OC(F)(F)F)cc2)N1C(=O)C(=O)Nc1cnc(N)c2c1cnn2C (racemic) [Compound P12] | 5 | 121 | 607 | 
3 | C[C@H]1CC[C@H](c2ccc3sc(CN(C)C)nc3c2)N(C(=O)C(=O)Nc2cnc(N)c3c2cnn3C)C1 (racemic) [Compound P14] | 11 | 27 | 295 | 
4 | C[C@H]1CC[C@H](c2ccc3sc(C(F)(F)F)nc3c2)N(C(=O)C(=O)Nc2cnc(N)c3c2cnn3C)C1 (racemic) [Compound P16] | 11 | 81 | 891 | 
5 | C[C@H]1CC[C@H](c2ccc3sc(-c4cccnc4)nc3c2)N(C(=O)C(=O)Nc2cnc(N)c3c2cnn3C)C1 (racemic) [Compound P17] | 8 | 76 | 606 | 
6 | C[C@H]1CC[C@H](c2ccc3sc(C4CCOCC4)nc3c2)N(C(=O)C(=O)Nc2cnc(N)c3c2cnn3C)C1 (racemic) [Compound P18] | 14 | 64 | 900 | 
7 | Cn1ncc2c(NC(=O)C(=O)NC3COc4cc(C(F)(F)F)ccc43)cnc(N)c21 (stereo not shown) [Compound A1, reference compound] | > 10000 |  | > 10000 | 
8 | CN(C(=O)C(=O)Nc1cnc(N)c2c1cnn2C)[C@@H]1COc2cc(-c3cncc(Cl)c3)ccc21 [Compound H1a] | 9 | 258 | 2320 | 
9 | CN(C(=O)C(=O)Nc1cnc(N)c2c1cnn2C)[C@H]1COc2cc(-c3cncc(Cl)c3)ccc21 [Compound H1b] | 300 | >33 | > 10000 | 
10 | CN(C(=O)C(=O)Nc1cnc(N)c2c1cnn2C)[C@H]1COCc2nc(-c3cncc(Cl)c3)ccc21 [Compound H2a] | 224 | >45 | > 10000 | 
11 | CN(C(=O)C(=O)Nc1cnc(N)c2c1cnn2C)[C@H]1COc2cc(C(F)(F)F)ccc21 [Compound P2b] | 118 | 85 | > 10000 | 
12 | C[C@@H]1CC[C@@H](c2ccc3scnc3c2)N(C(=O)C(=O)Nc2cnc(N)c3c2cnn3C)C1 [Compound P3a] |  |  | > 10000 | 666
13 | C[C@H](c1ncccn1)N(Cc1ccc(C(F)(F)F)cn1)C(=O)C(=O)Nc1cnc(N)c2cnn(C)c12 [Compound P4] | 813 | >12 | > 10000 | 
14 | CCn1ncc2c(NC(=O)C(=O)N(Cc3ccc(C(F)(F)F)cn3)[C@H](C)c3ncccn3)cnc(N)c21 [Compound P6] | 18 | 72 | 1300 | 
15 | C[C@H](c1ncccn1)N(Cc1ccc(C(F)(F)F)cn1)C(=O)C(=O)Nc1cnc(N)c2c1cnn2C1CC1 [Compound P7] | 56 | 45 | 2520 | 
16 | C[C@H](c1ncccn1)N(Cc1ccc(-c2cncc(Cl)c2)cn1)C(=O)C(=O)Nc1cnc(N)c2c1cnn2C [Compound P8] | 4 | 40 | 161 | 
17 | CN(C(=O)C(=O)Nc1cnc(N)c2c1cnn2C)[C@H]1COCc2nc(C(F)(F)F)ccc21 [Compound P9b] | 883 | >11 | > 10000 | 
18 | C[C@H]1COC[C@@H](c2ccc(C(F)(F)F)cn2)N1C(=O)C(=O)Nc1cnc(N)c2c1cnn2C [Compound P11a] | 1910 | >5 | > 10000 | 
19 | C[C@@H]1COC[C@H](c2ccc(C(F)(F)F)cn2)N1C(=O)C(=O)Nc1cnc(N)c2c1cnn2C [Compound P11b] | 8 | 53 | 427 | 
